# In patent US5563176A (priority 1994, dated 1996):
# Like-named read-outs stand apart in the source and are kept apart here.
# Assays:
# [1] = system: human lung adenocarcinoma MV522; experiment: animal or person; conditions: MV522, ip, read-out: life span
# MV522 cells = experiment: cells; type: cell-based, human; conditions: Homo sapiens, MV522, 2 h, read-out: Two hour IC50
# [2] = system: L1210 CPA (cyclophos) cells; experiment: sensitivity of mdr lines, L1210 CPA; type: cell-based; conditions: Mus musculus
# 8392 cells = experiment: cells; type: cell-based; conditions: 48 h, read-out: 48 hour IC50
# [3] = system: MDA-231 parent (Breast) cells; experiment: sensitivity of mdr lines, MDA-231 parent; type: cell-based; conditions: Homo sapiens, MDA-MB-231
# 547, ovarian = experiment: inhibition of thymidine incorporation after two hour exposure, 547; type: cell-based; conditions: 2 h; Table 1; 547, two hour exposure
# Method: (§1) To assess cytotoxic effects, various concentrations of illudins were added to cultures of cells for 48 hours, then cell growth/viability was determined by trypan blue exclusion. As an alternative to 48 hour continuous exposure studies, cells were plated in liquid culture in 96 well plates, exposed to various concentrations of illudins for 2 hours, pulsed with [^3 H]-thymidine for one to two hours and harvested onto glass filters. The filter papers were added to vials containing scintillation fluid and residual radioactivity determined in a beta (scintillation) counter.
# (§2) two hour exposure to the toxins (N - 3).
# [4] = system: human lung adenocarcinoma MV522; conditions: in vivo
# [5] = system: HL60/MRI cells (human myeloid leukemia tumor cells)
# SL-2, murine (thymic) = experiment: inhibition of thymidine incorporation after two hour exposure, SL-2; type: cell-based; conditions: Mus musculus, 2 h; Table 1; SL-2, two hour exposure
# Method: as §1, §2
# MCF-7, breast = experiment: cells; type: cell-based, human; conditions: Homo sapiens, MCF7, 2 h
# L1210 parent cells = experiment: sensitivity of mdr lines, L1210 parent; type: cell-based; conditions: Mus musculus
# KB parent cells = experiment: sensitivity of mdr lines, KB parent; type: cell-based
# HL-60 ADR (gp150+) cells = experiment: sensitivity of mdr lines, HL-60 ADR; type: cell-based; conditions: Homo sapiens, HL60/ADR
# [6] = system: L1210 DDPt (cis-plat) cells; experiment: sensitivity of mdr lines, L1210 DDPt; type: cell-based; conditions: Mus musculus
# [7] = system: MCF7-wt parent (Breast) cells; experiment: sensitivity of mdr lines, MCF7-wt parent; type: cell-based; conditions: Homo sapiens; MCF7-wt Parent; read-out: Sensitivity of mdr lines
# CFU-GM = experiment: colony formation zone size, CFU-GM; conditions: for Zone Size: CFU-GM
# MV522 = experiment: cells; type: cell-based; conditions: Homo sapiens, MV522, 48 h, read-out: 48 hour IC50
# HL60 cells = experiment: cells; type: cell-based; conditions: Homo sapiens, HL-60, 48 h, read-out: 48 hour IC50
# KB C-1 (gp170+) cells = experiment: sensitivity of mdr lines, KB C-1; type: cell-based; conditions: KBC-1
# L1210 = experiment: zone of inhibition / colony formation, L1210
# KB VBL (gp170+) cells = experiment: sensitivity of mdr lines, KB VBL; type: cell-based
# [8] = system: SL-2 leukemia/lymphoma cells; experiment: SL-2 syngeneic model, increased life span; type: in vivo, murine
# Method: The efficacy of dehydroilludin M was then screened in a syngeneic model using murine SL-2 cells. SL-2 leukemia/lymphoma cells are injected subcutaneously and metastasized to lymph nodes, spleen, and lungs, and drug efficacy in this model is determined by increased life span (ILS). The SL-2 cells were administered at 2.5 million cells per animal and treatment was delayed. for 7 days until the tumors were palpable. Ibis is a relatively stringent test .against established tumors and contrasts to general drug screens in the SL-2 model which normally use only 0.5 million cells and starting drug treatment at 3 days. […] When administered IV at 0.03 mg/kg, twice a week, the ILS increased to 38%.
# L1210 BCNU cells = experiment: sensitivity of mdr lines, L1210 BCNU; type: cell-based; conditions: Mus musculus
# MDA-231, breast = experiment: cells; type: cell-based; conditions: Homo sapiens, MDA-MB-231, 2 h
# [9] = system: MCF7 ADR (GSH-transferase) cells; experiment: cells; type: cell-based; conditions: Homo sapiens, NCI/ADR-RES, read-out: Sensitivity of mdr lines
# L1210 cells = experiment: L1210 in vivo, increased life span
# Method: In collaboration, the in vivo effects of dehydroilludin M was again studied. Initially the compound was studied against L1210 cells. […] The dehydroilludin M was then administered as a 24 hour infusion (5.0 mg/kg); the ILS was 11%. After we became aware of the presence of the energy-dependent uptake in human myelocytic cells, dehydroilludin M was screened for in vivo efficacy against a syngeneic mouse AML model using C1498 cells and a single bolus of […], 2.5 mg/kg IP, produced an ILS of 35%.
# 8402, T-cell = experiment: inhibition of thymidine incorporation after two hour exposure, 8402; type: cell-based; conditions: 2 h, Table 1, 8402, two hour exposure
# Method: as §1, §2
# [10] = system: L1210 PAM (melphalan) cells; experiment: sensitivity of mdr lines, L1210 PAM; type: cell-based; conditions: Mus musculus
smiles,measurement,setting,value
CC1=C2C(=O)C(C)(C)C=C2C(=O)[C@](C)(O)C12CC2 [Dehydroilludin M],response vs control in vivo at 30 mg/kg,[1],163 ± 6%
same,IC50,MV522 cells,1830 nM
same,IC50,[2],38 ± 15 nM
same,IC50,8392 cells,269 ± 100 nM
same,IC50,[3],54 ± 7 nM
same,IC50,"547, ovarian",> 38000 nM
same,efficacy in this model,[4],markedly increased the lifespan
same,total tumor weight,"[5]; 1 mg/kg IV, day 11",114 ± 55 Mg
same,total tumor weight,"[5]; 1 mg/kg IV, day 18",883 ± 311 Mg
same,total tumor weight,"[5]; 1 mg/kg IV, day 25",2274 ± 992 Mg
same,total tumor weight,"[5]; 1 mg/kg IV, day 32",6025 ± 1772 Mg
same,total tumor weight,"[5]; 1 mg/kg IV, day 40",11507 ± 3707 Mg
same,total tumor weight,"[5]; 3 mg/kg IV, day 11",101 ± 40 Mg
same,total tumor weight,"[5]; 3 mg/kg IV, day 18",911 ± 309 Mg
same,total tumor weight,"[5]; 3 mg/kg IV, day 25",2127 ± 1092 Mg
same,total tumor weight,"[5]; 3 mg/kg IV, day 32",2854 ± 1260 Mg
same,total tumor weight,"[5]; 3 mg/kg IV, day 40",4784 ± 2303 Mg
same,tumor inhibition,"[5]; IP twice a week, FIG. 6",dose related tumor inhibition
same,inhibition of tumor growth,"[5]; IV twice a week, dose dependent",effective at inhibiting tumor growth
same,"adverse effects (food or water intake, body weight)","[5]; highest amount of either drug, IV",did not display any evidence of adverse effect
same,IC50,"SL-2, murine (thymic)",5240 nM
same,IC50,"MCF-7, breast",653 ± 65 nM
same,IC50,L1210 parent cells,62 ± 8 nM
same,IC50,KB parent cells,125 ± 14 nM
same,IC50,HL-60 ADR (gp150+) cells,191 ± 44 nM
same,IC50,[6],119 ± 39 nM
same,IC50,[7],92 ± 15 nM
same,Zone Size,CFU-GM; dilution 1/25,200
same,Zone Size,CFU-GM; dilution 1/125,100
same,Zone Size,CFU-GM; dilution 1/125 (repeat),50
same,Zone Size,CFU-GM; dilution 1/625,0
same,effect on CFU-gm cells,CFU-GM; at concentrations inhibiting AML colony formation,no effect
same,IC50,MV522,313 ± 23 nM
same,IC50,HL60 cells,296 ± 66 nM
same,IC50,KB C-1 (gp170+) cells,80 ± 18 nM
same,Zone Size,"L1210; L1210, dilution 1/25",400
same,Zone Size,"L1210; L1210, dilution 1/125",200
same,Zone Size,"L1210; L1210, dilution 1/125 (repeat)",300
same,Zone Size,"L1210; L1210, dilution 1/625",100
same,IC50,KB VBL (gp170+) cells,78 ± 19 nM
same,ILS,[8]; 0.03 mg/kg IV twice a week,38%
same,ILS,[8]; 30 mg/kg IP twice a week,5%
same,ILS,[8]; 60 mg/kg IP twice a week,18%
same,IC50,L1210 BCNU cells,100 ± 31 nM
same,IC50,"MDA-231, breast",112 ± 17 nM
same,IC50,[9],68 ± 15 nM
same,ILS,L1210 cells; 2.5 mg/kg IP daily for 5 days,9%
same,ILS,L1210 cells; 24 hour infusion (5.0 mg/kg),11%
same,IC50,"8402, T-cell",> 38000 nM
same,IC50,[10],73 ± 31 nM
